Assay results published in patent publication US10206907B2, “Compounds useful for the treatment of degenerative and inflammatory diseases” (GALAPAGOS NV, priority 2008, dated 2019).
Read-outs that look alike come from different tables or passages of the source.

Key:
[1] = target: Recombinant human JAK2 catalytic domain (Homo sapiens (Human), UniProt O60674); assay: JAK2 inhibition assay; format: biochemical; details: semi-quantitative score
Summary of the method: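 Radiometric kinase reactions ran for 90 min at 30 °C and were stopped with phosphoric acid, then washed and counted by scintillation. Percent inhibition was set relative to vehicle and to 10 μM staurosporine background. IC50 was derived from dose-dilution series.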

[2] = test system: JAK-STAT signalling in HeLa cells; assay: JAK-STAT signalling assay (OSM-triggered pSTAT1(2)-luciferase reporter in HeLa cells); format: cell-based; details: Homo sapiens; HeLa cells, OSM-triggered pSTAT1(2)-luciferase reporter; read-out: STAT signalling EC50
Summary of the method: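 HeLa cells transiently transfected with pSTAT1(2)-luciferase reporter plus LacZ internal control, incubated overnight at 37 °C, 10% CO2, then OSM-stimulated with compound. Luciferase read by Steadylite luminescence and normalised to β-galactosidase (ONPG); percent inhibition from controls, EC50 from dose-response.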

[3] = Microsomal stability, human liver microsomes; format: in vitro ADME; details: percentage of compound remaining after 60 minutes, 3 μM compound
Summary of the method: (§1)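 Compound was incubated with liver microsomes plus an NADP+/glucose-6-phosphate/G6PDH/MgCl2 regenerating system at 37°C for 1 h. Reactions were stopped 1:1 with MeOH or ACN and analysed by LCMS.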

[4] = target: Recombinant human JAK1 catalytic domain (Homo sapiens (Human), UniProt P23458); assay: JAK1 inhibition assay; format: biochemical
Recombinant human JAK1 catalytic domain, sequence (P23458 850-1154): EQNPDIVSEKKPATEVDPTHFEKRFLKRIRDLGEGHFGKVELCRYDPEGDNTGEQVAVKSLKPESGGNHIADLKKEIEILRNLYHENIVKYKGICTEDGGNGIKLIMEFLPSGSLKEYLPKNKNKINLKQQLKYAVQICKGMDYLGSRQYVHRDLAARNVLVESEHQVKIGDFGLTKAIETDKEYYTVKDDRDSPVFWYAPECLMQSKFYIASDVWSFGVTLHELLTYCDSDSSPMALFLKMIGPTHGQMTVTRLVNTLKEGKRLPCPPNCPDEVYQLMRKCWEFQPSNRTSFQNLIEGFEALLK
Summary of the method: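 Radiometric assay read by scintillation counting after phosphoric-acid washes. Percent inhibition calculated from cpm relative to vehicle and 10 μM staurosporine control. IC50 derived from compound dose-dilution series.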

[5] = target: Recombinant human JAK3 catalytic domain (Homo sapiens (Human), UniProt P52333); assay: JAK3 inhibition assay; format: biochemical; details: semi-quantitative score
Recombinant human JAK3 catalytic domain, sequence (P52333 781-1124): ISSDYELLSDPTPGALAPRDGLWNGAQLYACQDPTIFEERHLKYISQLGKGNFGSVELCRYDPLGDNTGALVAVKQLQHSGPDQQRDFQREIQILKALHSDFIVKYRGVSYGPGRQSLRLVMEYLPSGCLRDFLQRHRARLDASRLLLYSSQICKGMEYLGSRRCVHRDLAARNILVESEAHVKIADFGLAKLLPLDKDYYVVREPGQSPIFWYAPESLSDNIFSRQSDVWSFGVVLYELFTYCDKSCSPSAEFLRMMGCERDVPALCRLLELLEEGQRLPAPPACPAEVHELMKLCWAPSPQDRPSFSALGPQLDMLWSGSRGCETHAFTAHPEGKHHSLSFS
Experimental: Plates were washed 6 times with 300 μL per well of a 75 mM phosphoric acid solution and the bottom of the plates was sealed. 40 μL/well of Microscint-20 was added, the top of the plates was sealed and readout was performed using the Topcount (Perkin Elmer). Kinase activity was calculated by subtracting counts per minute (cpm) obtained in the presence of a positive control inhibitor (10 μM staurosporine) from cpm obtained in the presence of vehicle. The ability of a test compound to inhibit this activity was determined as: Percentage inhibition=((cpm determined for sample with test compound present−cpm determined for sample with positive control inhibitor) divided by (cpm determined in the presence of vehicle−cpm determined for sample with positive control inhibitor))*100%.
Dose dilution series were prepared for the compounds enabling the testing of dose-response effects in the JAK3 assay and the calculation of the IC50 for each compound.

[6] = test system: MMP13 in SW1353 cells; assay: OSM/IL-1β signaling assay (MMP13 levels in SW1353 cells); format: cell-based; details: Homo sapiens; SW1353 cells, OSM and IL-1β triggered, MMP13 levels 48 hours after triggering; read-out: MMP13 EC50;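 also: secreted MMP13 captured by antibody, activated with APMA and its activity read by fluorescence, inhibition scaled between vehicle-treated triggered wells (0%) and untriggered wells (100%)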
[7] = Microsomal stability, rat liver microsomes; format: in vitro ADME; details: percentage of compound remaining after 60 minutes, 3 μM compound
Summary of the method: as §1

[8] = Caco2 permeability (bi-directional); format: in vitro ADME, human; details: human, pH 7.4; for Papp A→B at 1 h, 10 µM: Caco-2, apical to basolateral, read-out: Papp (A2B); for efflux ratio at 1 h, 10 µM: Caco-2, ratio of PappB>A/PappA>B
Experimental: Bi-directional Caco-2 assays were performed as described below.
2×10^5 cells/well were seeded in plating medium consisting of DMEM+GlutaMAXI+1% NEAA+10% FBS (FetalClone II)+1% Pen/Strep. The medium was changed every 2-3 days.
50 μM Lucifer Yellow (Sigma) was added to the donor buffer in all wells to assess integrity of the cell layers by monitoring Lucifer Yellow permeation. As Lucifer Yellow (LY) cannot freely permeate lipophilic barriers, a high degree of LY transport indicates poor integrity of the cell layer.
After a 1 hour incubation at 37° C. while shaking at an orbital shaker at 150 rpm, 70 μL aliquots were taken from both apical (A) and basal (B) chambers and added to 100 μL1 50:50 acetonitrile:water solution containing analytical internal standard (0.5 μM carbamazepine) in a 96 well plate.
Concentrations of compound in the samples were measured by high performance liquid-chromatography/mass spectroscopy (LC-MS/MS).
The Efflux ratios, as an indication of active efflux from the apical cell surface, were calculated using the ratio of PappB>A/PappA>B.
The following assay acceptance criteria were used:
Lucifer yellow permeability: ≤100 nm/s

Recombinant human JAK2 catalytic domain, sequence (O60674 808-1132): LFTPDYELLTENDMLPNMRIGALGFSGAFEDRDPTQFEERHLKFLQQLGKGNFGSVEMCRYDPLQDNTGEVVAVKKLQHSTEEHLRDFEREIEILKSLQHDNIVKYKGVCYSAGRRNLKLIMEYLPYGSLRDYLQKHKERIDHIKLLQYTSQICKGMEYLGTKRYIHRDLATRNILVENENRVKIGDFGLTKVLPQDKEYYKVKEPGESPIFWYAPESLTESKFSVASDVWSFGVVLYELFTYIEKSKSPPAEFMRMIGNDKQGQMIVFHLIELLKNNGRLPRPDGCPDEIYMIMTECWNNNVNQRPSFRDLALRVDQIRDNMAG

SMILES	IC50 [1] [nM]	EC50 [2] [nM]	Microsomal Stability Human (%) [3]	IC50 ([4]; semi-quantitative score) [nM]	IC50 [5] [nM]	EC50 [6] [nM]	Microsomal Stability Rat (%) [7]	Papp A→B at 1 h, 10 µM [8] [×10⁻⁶ cm/s]	efflux ratio at 1 h, 10 µM [8]	IC50 [4] [nM]
O=C(Nc1nc2cccc(-c3ccc(OCc4ccc(C(F)(F)F)nc4)cc3)n2n1)C1CC1 [Compound 78, N-(5-(4-((6-(trifluoromethyl)pyridin-3-yl)methoxy)phenyl)-[1,2,4]triazolo[1,5-a]pyridin-2-yl)cyclopropanecarboxamide]	< 100	> 1000	**** (**** 76-100)	< 100	101 to 500	501 to 1000	**** (**** 76-100)	–	1.5	–
CCCc1ccc(S(=O)(=O)Nc2ccc(-c3cccc4nc(NC(=O)C5CC5)nn34)cc2)cc1 [Compound 85, N-(5-(4-(4-propylphenylsulfonamido)phenyl)-[1,2,4]triazolo[1,5-a]pyridin-2-yl)cyclopropanecarboxamide]	101 to 500	> 1000	* (* 0-25)	< 100	> 1000	> 1000	* (* 0-25)	–	–	–
O=C(Nc1nc2cccc(-c3ccc(NS(=O)(=O)CCc4cccc(F)c4)cc3)n2n1)C1CC1 [Compound 88, N-(5-(4-(2-(3-fluorophenyl)ethylsulfonamido)phenyl)-[1,2,4]triazolo[l,5-a]pyridin-2-yl)cyclopropanecarboxamide]	101 to 500	> 1000	* (* 0-25)	< 100	> 1000	> 1000	* (* 0-25)	–	–	–
CCCCN(CCCN1CCOCC1)C(=O)c1ccc(-c2cccc3nc(NC(=O)C4CC4)nn23)cc1 [Compound 90, N-butyl-4-(2-(cyclopropanecarboxamido)-[1,2,4]triazolo[1,5-a]pyridin-5-yl)-N-(3-morpholinopropyl)benzamide]	501 to 1000	> 1000	** (** 26-50)	< 100	> 1000	> 1000	** (** 26-50)	–	–	–
O=C(Nc1nc2cccc(-c3ccc(OCCn4cccn4)cc3)n2n1)C1CC1 [Compound 98]	101 to 500	> 1000	** (** 26-50)	< 100	> 1000	> 1000	** (** 26-50)	–	–	–
NC(=O)c1ccc(COc2ccc(-c3cccc4nc(NC(=O)C5CC5)nn34)cc2)cn1 [Compound 192, 5-{4-[2-(Cyclopropanecarbonyl-amino)-[1,2,4]triazolo[1,5-a]pyridin-5-yl]-phenoxymethyl}-pyridine-2-carboxylic Acid Amide]	–	101 to 500	**** (**** 76-100)	–	101 to 500	501 to 1000	**** (**** 76-100)	–	2	< 100
O=C(Nc1nc2cccc(-c3ccc(CC(=O)N4CCC(C(F)(F)F)CC4)cc3)n2n1)C1CC1 [Compound 319, Cyclopropanecarboxylic acid (5-{4-[2-oxo-2-(4-trifluoromethyl-piperidin-1-yl)-ethyl]-phenyl}-[1,2,4]triazolo[1,5-a]pyridin-2 yl)-amide]	–	501 to 1000	* (* 0-25)	< 100	101 to 500	> 1000	* (* 0-25)	11.2	–	–

More lines, main results first:

IC50 [1] [nM]	EC50 [2] [nM]	Microsomal Stability Human (%) [3]	IC50 ([4]; semi-quantitative score) [nM]	IC50 [5] [nM]	EC50 [6] [nM]	Microsomal Stability Rat (%) [7]	Papp A→B at 1 h, 10 µM [8] [×10⁻⁶ cm/s]	efflux ratio at 1 h, 10 µM [8]	SMILES	IC50 [4] [nM]
101 to 500	101 to 500	*** (*** 51-75)	< 100	> 1000	> 1000	** (** 26-50)	7.78	5.2	O=C(NCc1cccc(F)c1)c1ccc(-c2cccc3nc(NC(=O)C4CC4)nn23)cc1 [Compound 29, 4-(2-(cyclopropanecarboxamido)-[1,2,4]triazolo[1,5-a]pyridin-5-yl)-N-(3-fluorobenzyl)benzamide]	–
< 100	501 to 1000	* (* 0-25)	< 100	> 1000	> 1000	* (* 0-25)	–	–	CN(C(=O)c1ccc(-c2cccc3nc(NC(=O)C4CC4)nn23)cc1)c1ccccc1 [Compound 30, 4-(2-(cyclopropanecarboxamido)-[1,2.4]triazolo[1,5-a]pyridin-5-yl)-N-methyl-N-phenylbenzamide]	–
< 100	> 1000	* (* 0-25)	< 100	501 to 1000	501 to 1000	* (* 0-25)	–	1.31	O=C(Nc1nc2cccc(-c3ccc(NCc4ccccc4)cc3)n2n1)C1CC1 [Compound 72, N-(5-(4-(benzylamino)phenyl)-[1,2,4]triazolo[1,5-a]pyridin-2-yl)cyclopropanecarboxamide]	–
101 to 500	> 1000	* (* 0-25)	< 100	> 1000	501 to 1000	* (* 0-25)	18.2	2.5	O=C(Nc1nc2cccc(-c3ccc(C(=O)N4CCCN(Cc5ccccc5)CC4)cc3)n2n1)C1CC1 [Compound 75, N-(5-(4-(4-benzyl-1,4-diazepane-1-carbonyl)phenyl)-[1,2,4]triazolo[1,5-a]pyridin-2-yl)cyclopropanecarboxamide]	–
< 100	501 to 1000	* (* 0-25)	< 100	101 to 500	1 to 500	* (* 0-25)	8.14	5.09	O=C(Nc1nc2cccc(-c3ccc(NS(=O)(=O)CCc4ccccc4)cc3)n2n1)C1CC1 [Compound 76, N-(5-(4-(2-phenylethylsulfonamido)phenyl)-[1,2,4]triazolo[1,5-a]pyridin-2-yl)cyclopropanecarboxamide]	–
101 to 500	> 1000	** (** 26-50)	< 100	> 1000	1 to 500	** (** 26-50)	–	–	O=C(Nc1nc2cccc(-c3ccc(NS(=O)(=O)Cc4ccccc4)cc3)n2n1)C1CC1 [Compound 77, N-(5-(4-(phenylmethylsulfonamido)phenyl)-[1,2,4]triazolo[1,5-a]pyridin-2-yl)cyclopropanecarboxamide]	–
< 100	101 to 500	* (* 0-25)	< 100	101 to 500	501 to 1000	* (* 0-25)	20.9	1.81	O=C(NCCc1ccccc1)c1ccc(-c2cccc3nc(NC(=O)C4CC4)nn23)cc1 [Compound 87, 4-(2-(cyclopropanecarboxamido)-[1,2,4]triazolo[1,5-a]pyridin-5-yl)-N-phenethylbenzamide]	–
101 to 500	> 1000	* (* 0-25)	< 100	> 1000	501 to 1000	* (* 0-25)	–	–	O=C(NCCCc1ccccc1)c1ccc(-c2cccc3nc(NC(=O)C4CC4)nn23)cc1 [Compound 114, 4-(2-(cyclopropanecarboxamido)-[1,2,4]triazolo[1,5-a]pyridin-5-yl)-N-(3-phenylpropyl)benzamide]	–
